Legend:
Assay in all cases: relative viability (nuclei count vs DMSO), 5 days (fraction); higher = more cells survive
IU1-47 + Foretinib = compound: CC1=CC(=C(N1C2=CC=C(C=C2)Cl)C)C(=O)CN3CCCCC3 [IU1-47] + COc1cc2c(Oc3ccc(NC(=O)C4(C(=O)Nc5ccc(F)cc5)CC4)cc3F)ccnc2cc1OCCCN1CCOCC1 [Foretinib] (partner 0.25 µM)
How it was run: (§1)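 Values are medians from duplicate plates. Each reflects relative viability, defined as the nuclei count of treated wells over that of vehicle wells. Lung cancer cell lines in 1536-well plates were pin-tool dosed one day after seeding with one drug alone or with a fixed anchor-drug dose plus five library-drug doses (not always all listed) in √10 steps, then fixed, stained and imaged at 4× after 5 days.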

FG-4592 + OSI-027 = compound: Cc1nc(C(=O)NCC(=O)O)c(O)c2ccc(Oc3ccccc3)cc12 [FG-4592] + COc1cccc2cc(-c3nc([C@H]4CC[C@H](C(=O)O)CC4)n4ncnc(N)c34)[nH]c12 [OSI-027] (partner 0.5 µM)
How it was run: as §1

FG-4592 + Lapatinib = compound: Cc1nc(C(=O)NCC(=O)O)c(O)c2ccc(Oc3ccccc3)cc12 [FG-4592] + CS(=O)(=O)CCNCc1ccc(-c2ccc3ncnc(Nc4ccc(OCc5cccc(F)c5)c(Cl)c4)c3c2)o1 [Lapatinib] (partner 2 µM)
How it was run: as §1

FG-4592 + Pemetrexed = compound: Cc1nc(C(=O)NCC(=O)O)c(O)c2ccc(Oc3ccccc3)cc12 [FG-4592] + Nc1nc2[nH]cc(CCc3ccc(C(=O)N[C@@H](CCC(=O)O)C(=O)O)cc3)c2c(=O)[nH]1 [Pemetrexed] (partner 0.2 µM)
How it was run: as §1

Cell Line	relative viability (IU1-47 + Foretinib; first compound 0.08 µM)	relative viability (IU1-47 + Foretinib; first compound 0.253 µM)	relative viability (IU1-47 + Foretinib; first compound 0.8 µM)	relative viability (IU1-47 + Foretinib; first compound 8 µM)	relative viability (FG-4592 + OSI-027; first compound 0.08 µM)	relative viability (FG-4592 + OSI-027; first compound 0.253 µM)	relative viability (FG-4592 + OSI-027; first compound 0.8 µM)	relative viability (FG-4592 + OSI-027; first compound 2.53 µM)	relative viability (FG-4592 + OSI-027; first compound 8 µM)	relative viability (FG-4592 + Lapatinib; first compound 0.08 µM)	relative viability (FG-4592 + Lapatinib; first compound 0.253 µM)	relative viability (FG-4592 + Lapatinib; first compound 2.53 µM)	relative viability (FG-4592 + Lapatinib; first compound 8 µM)	relative viability (FG-4592 + Pemetrexed; first compound 0.08 µM)	relative viability (FG-4592 + Pemetrexed; first compound 0.253 µM)	relative viability (FG-4592 + Pemetrexed; first compound 2.53 µM)	relative viability (FG-4592 + Pemetrexed; first compound 8 µM)	relative viability (IU1-47 + Foretinib; first compound 2.53 µM)	relative viability (FG-4592 + Pemetrexed; first compound 0.8 µM)	relative viability (FG-4592 + Lapatinib; first compound 0.8 µM)
NCI-H1355	1.06	1.06	0.946	0.998	0.376	0.372	0.353	0.301	0.35	1.03	0.939	0.955	0.823	1.07	0.942	1.03	1.05			
NCI-H1395	0.944	0.895	1.12	1	0.593	0.644	0.56	0.612	0.549	1.19	0.935	0.967	0.662	0.877	0.859	0.768	0.671	0.939	0.528	
NCI-H1437	1.31	1.29	1.28	1.2	0.907	0.812	0.862	0.667	0.506	0.883	0.817	0.677	0.499	0.32	0.31	0.32	0.274	1.22	0.349	0.8
NCI-H1563	0.855	0.988	0.967	0.864	0.78	0.785	0.718	0.701	0.606	0.873	0.829	1.04	0.809	0.628	0.732	0.759	0.715	0.886	0.6	0.779
NCI-H1650	1.05	1.17	1.1	0.886	0.523	0.603	0.839	0.621	0.634	0.637	0.704	0.677	0.78	0.388	0.346	0.362	0.344	1.4	0.409	0.544
NCI-H1651	0.946	0.869	0.903	0.973	0.741	0.639	0.719	0.645	0.605	0.744	0.883	0.826	0.706	0.591	0.57	0.588	0.508	0.787	0.583	0.741
NCI-H1666	1.04	0.928	0.893	0.896	0.809	0.803	0.837	0.775	0.621	0.617	0.519	0.519	0.456	0.771	0.836	0.834	0.722	0.948	0.932	0.485
NCI-H1734	0.89	0.888	0.844	0.765	0.565	0.621	0.541	0.529	0.445	0.947	0.886	0.973	1.02	0.407	0.408	0.422	0.397		0.419	0.915

— the supplement of paper PMC10307832
